The text below walks through data of patent publication US7422862B2, “Methods for identifying modulators of apoptosis” (The Burnham Institute, priority 2001, dated 2008).

d = 2'-deoxy (DNA); r = 2'-OH (RNA)

Format in all cases: cell-based
One series deals with endogenous Humanin. Kind of series: siRNA knock-down of endogenous Humanin in SF268 cells (immunoblotting). As for the experimental part:
(§1) (A-D) CMS14.1 neuronal cells were transfected with plasmids encoding Flag-HN peptide or Flag-control (27-amino-acid) peptide, together with GFP-encoding plasmid at 4:1 ratio. Cells were either cultured without further treatment (open bars) or subjected to various apoptotic stimuli for various times (dark bars), including (A) STS for 8 h (dark symbols=Flag-control; open symbols=Flag-HN), (B) Serum-deprivation for 72 h, (C) 10 joules/m2 Uvirradiation followed by 24 h culture, and (D) 50 ng/ml TNFa in […] for 24 h. Cells were then fixed and stained with DAPI to determine the percentage of apoptotic cells, evaluating=200 GFP-positive cells per sample (mean±SD; n=3). (inset) Lysates prepared from replicate cultures of transfected cells were normalized for total protein content and analyzed by immunoblotting using anti-Flag (top) and anti-tubulin (bottom) antibodies, confirming production of similar amounts of Flag-control and Flag-HN peptides. […] (Upper panel) After 72 hr, cell lysates were prepared and 100 ug was analyzed by immunoblotting using anti-HN and anti-tubulin (as a loading control) antibodies. (Lower panel) At 72 hr after siRNA transfection, SF268 cells were cultured with 0.1 μM STS for 8 hrs, then % apoptosis was determined (mean+std dev; n=3). […] Apoptosis (%) was measured 48 hrs later among GFP-positive cells. […]
On the technique in general: Immunoblotting shows a protein as a band on a membrane.

The test system of the next series is endogenous Bax protein. The series is described as follows: Subcellular fractionation and immunoblot of endogenous Bax after STS. Conditions: SF268 cells, Humanin knocked-down by siRNA. As to the method: (A-B) Humanin peptide prevents STS-induced Bax translocation in vivo. Cos-7 cells were first transfected with GFP-Bax plasmids. After 24 hrs, untagged wild-type or C8P mutant Humanin peptides were introduced into cells using ChariotTM reagent, and 2 h later cells were treated with 1 μM STS. After 4 h, the percentage of cells with translocated Bax was determined (mean±SD; n=3) by confocal microscopy (A) and representative photomicrographs (B). (C) Wild-type or C8P mutant Humanin peptides were introduced into Cos7 cells using ChariotTM reagent. Cytosolic (C) and mitochondria-containing (M) fractions were isolated by differential centrifugation 23 and analyzed by immunoblotting using anti-Bax (top), Hsp60 (middle) (mitochondrial marker), or Tubulin (bottom) (cytosol marker) antibodies. (D) HN or mutant control double-strand siRNAs were transfected into SF268 cells. After 48 h, cells were cultured without (Control) or with 0.1 uM STS. After 24 hr, cells were fractionated and analyzed by immunoblotting as above. […] After 3 h at 30° C., mitochondria were centrifuged and the resulting pellets (P) and supernatants (S) were analyzed by immunoblotting using anti-Cytochrome c (top), Hsp60 (middle), and Bax (bottom) antibodies. […]
These findings were also confirmed by subcellular fractionation, where cytosol and mitochondria-enriched heavy membrane preparations were prepared from Cos7 cells transduced with untagged Humanin or Humanin(C8P) peptides, and the relative amounts of endogenous Bax protein in these two fractions were measured by immunoblot analysis of samples normalized for cell-equivalents. […] Differences in the relative potency of Humanin at blocking Bax translocation as measured by microscopy (FIG. 7A) versus cell fractionation methods (FIG. 7C) can be explained by differences in the sensitivity of the assays, or could possibly indicate that even in cells where some Bax translocation has occurred, less of the total Bax protein associated with mitochondria. […]

Another series has as its system SF268 cells. The series is described as follows: STS-induced apoptosis in siRNA-transfected SF268 cells. Conditions: 0.1 μM STS 8 hrs. As to the method: as §1

Take “Humanin siRNA: double-strand siRNA, sense r(CCAGUGAAAUUGACCUGCC)d(TT), SEQ ID NO:25/26 (sense CCAGUGAAAUUGACCUGCCNN; antisense GGCAGGUCAAUUUCACUGGNN; sugars from the 5' end r19 d2, backbone and the base at N not given here)”: the “endogenous levels of Humanin peptide” value with endogenous Humanin is “reduced”. Further, the “STS-induced translocation of Bax to membranes” value in the series with endogenous Bax protein is given as “enhanced”. Moreover, the “sensitivity to STS-induced apoptosis” value with SF268 cells is given as “increased”.
